In patent US6488912B1, “Treatment of dentoalveolar infections with taurolidine and/or taurultam” (Ed. Geistlich Soehne AG fuer Chemische Industrie, priority 1992, dated 2002):

What was measured:
[1] = background statement; cited from earlier work
dentoalveolar infections = experiment: Controlled clinical trial, taurolidine vs conventional therapy, all 6 indications pooled: target variables; assay type: in vivo, patients
Description: (§1) The in-vivo tests were carried out at the Clinic for Maxillofacial Surgery, Munich University between 1989 and 1992. In accordance with modern biometric principles the study was planned as a controlled clinical trial, i.e. it was conducted according to a prospective, protective, randomized, monocentre and simple blind design.
The following 6 indications examined were selected specifically on the basis of their incidence and clinical relevance.
(§2) The test substances investigated were 4 different galenic presentation forms of the active component taurolidine and 4 conventional finished pharmaceuticals.
(§3) For each of the 6 indications investigated an exact therapeutic procedure was fixed. The surgical management was carried out according to the individual situation in the usual manner. Tables 1 and 2 show the antimicrobial therapy regimens defined for patient groups A (Taurolidine group) and B (Standard group). It is evident, that the only difference, with the same quantity of substance applied in the same form, was the choice of preparation.
(§4) For critical examination of the effectiveness of the different pharmaceuticals concerning therapeutic success and total treatment time clinical parameters reflecting the progress of recovery were controlled and documented at every session. The following 6 target variables were defined and evaluated by a uniform scale (0=none to 4=very strong):
(§5) The score-level 5 (total) was given at the moment of complete remission and describes consequently the final point of treatment.
(§6) 200 cases were treated in each indication group, the total number amounted to 1,200. The distribution into the two therapy regimens was realised by random sampling. Statistical evaluations were made by means of testing methods described in customary literature.

[2] = test system: Alveolitis sicca dolorose; experiment: Controlled clinical trial, total treatment time to complete remission: alveolitis; assay type: in vivo, patients; details: TAUR: T-Irrigation fluid 3% + T-Dental emulsion 3%, STANDARD: NaCl 0.9% + AUREOMYCIN Ointment 3%, n=100 per group
Description: as §1, §2, §3, §4, §5, §6

Gangrene = experiment: Controlled clinical trial, total treatment time to complete remission: gangrene; assay type: in vivo, patients; details: TAUR: T-Irrigation fluid 3% + T-Liquid gel 3%, STANDARD: H2O2 3% + CHKM Solution, n=100 per group
Description: as §1, §2, §3, §4, §5, §6

Parodontitis marginalis = experiment: Controlled clinical trial, total treatment time to complete remission: parodontitis; assay type: in vivo, patients; details: TAUR: T-Liquid gel 3% + T-Dental emulsion 3%, STANDARD: DONTISOLON Ointment M, n=100 per group
Description: as §1, §2, §3, §4, §5, §6

Pericoronitis = experiment: Controlled clinical trial, total treatment time to complete remission: pericoronitis; assay type: in vivo, patients; details: TAUR: T-Irrigation fluid 3% + T-Dental emulsion 3%, STANDARD: NaCl 0.9% + AUREOMYCIN Ointment 3%, n=100 per group
Description: as §1, §2, §3, §4, §5, §6

Abscess = experiment: Controlled clinical trial, total treatment time to complete remission: abscess; assay type: in vivo, patients; details: TAUR: T-Irrigation fluid 3% + T-Dental emulsion 3%, STANDARD: NaCl 0.9% + AUREOMYCIN Ointment 3%, n=100 per group
Description: as §1, §2, §3, §4, §5, §6

Infection Prophylaxis = experiment: Controlled clinical trial, total treatment time to complete remission: infection prophylaxis; assay type: in vivo, patients; details: TAUR: T-Dental gel 2%, STANDARD: CHLORHEXAMED Dental gel 1%, n=100 per group
Description: as §1, §2, §3, §4, §5, §6

[3] = test system: human desmodontal fibroblasts; details: cited from earlier work
[4] = all 6 indications, n=600 per group, maximum
[5] = all 6 indications, n=600 per group, mean
[6] = all 6 indications, n=600 per group, minimum

For Neomycin, the allergy rate [1] is listed as 15-30%.

For O=S1(=O)CCN(CN2CCS(=O)(=O)NC2)CN1 [TAUR, taurolidine], the “PAIN TIME, Maximum” value (dentoalveolar infections; [4]) was 14 days, the “PERCUSSION TIME, Maximum” value (dentoalveolar infections; [4]) was 13 days and the “PRESSURE PAIN TIME, Maximum” value (dentoalveolar infections; [4]) was 15 days. The “SECRETION TIME, Maximum” value (dentoalveolar infections; [4]) was 15 days, the “SWELLING TIME, Maximum” value (dentoalveolar infections; [4]) was 14 days and the “PERCUSSION TIME, Mean” value (dentoalveolar infections; [5]) was 1.9 days. For the same compound, the “PRESSURE PAIN TIME, Mean” value (dentoalveolar infections; [5]) was 5.3 days, the “SECRETION TIME, Mean” value (dentoalveolar infections; [5]) was 3.9 days and the “SWELLING TIME, Mean” value (dentoalveolar infections; [5]) was 4.5 days. The “PAIN TIME, Minimum” value (dentoalveolar infections; [6]) was 1 days, the “PERCUSSION TIME, Minimum” value (dentoalveolar infections; [6]) was 1 days and the “PRESSURE PAIN TIME, Minimum” value (dentoalveolar infections; [6]) was 1 days. For the same compound, the “SECRETION TIME, Minimum” value (dentoalveolar infections; [6]) was 1 days, the “SWELLING TIME, Minimum” value (dentoalveolar infections; [6]) was 1 days and the “effectiveness against standard therapy (more rapid recovery)” value (dentoalveolar infections; all 6 indications, p<0.0001) was “superior effectiveness”. For the same compound, the “side effects after application” value (dentoalveolar infections; during the acute period of inflammation) was “slight pain for some minutes after application”, the “optional antibiotics and analgetics required/administered” value (dentoalveolar infections; taurolidine group vs standard group, p=0.007 resp. p=0.01) was “significantly less” and the “pain-free earlier than under conventional treatment (average)” value (dentoalveolar infections; taurolidine vs conventional treatment) was 2 days. The “ALVEOLITIS, total treatment TIME (remission), Maximum” value ([2]; maximum) was 15 days, the “ALVEOLITIS, total treatment TIME (remission), Mean” value ([2]; mean) was 5.6 days and the “ALVEOLITIS, total treatment TIME (remission), Minimum” value ([2]; minimum) was 3 days. For the same compound, the “GANGRENE, total treatment TIME (remission), Maximum” value (Gangrene; maximum) was 10 days, the “GANGRENE, total treatment TIME (remission), Mean” value (Gangrene; mean) was 5.0 days and the “GANGRENE, total treatment TIME (remission), Minimum” value (Gangrene; minimum) was 2 days. For the same compound, the “PARODONTITIS, total treatment TIME (remission), Maximum” value (Parodontitis marginalis; maximum) was 14 days, the “PARODONTITIS, total treatment TIME (remission), Mean” value (Parodontitis marginalis; mean) was 5.1 days and the “PARODONTITIS, total treatment TIME (remission), Minimum” value (Parodontitis marginalis; minimum) was 2 days. The “PERICORONITIS, total treatment TIME (remission), Maximum” value (Pericoronitis; maximum) was 12 days, the “PERICORONITIS, total treatment TIME (remission), Mean” value (Pericoronitis; mean) was 5.1 days and the “PERICORONITIS, total treatment TIME (remission), Minimum” value (Pericoronitis; minimum) was 2 days. The “ABSCESS, total treatment TIME (remission), Maximum” value (Abscess; maximum) was 13 days, the “ABSCESS, total treatment TIME (remission), Mean” value (Abscess; mean) was 5.5 days and the “ABSCESS, total treatment TIME (remission), Minimum” value (Abscess; minimum) was 2 days. The “INFECT. PROPHYLAXIS, total treatment TIME (remission), Maximum” value (Infection Prophylaxis; maximum) was 13 days, the “INFECT. PROPHYLAXIS, total treatment TIME (remission), Mean” value (Infection Prophylaxis; mean) was 7.5 days and the “INFECT. PROPHYLAXIS, total treatment TIME (remission), Minimum” value (Infection Prophylaxis; minimum) was 3 days.

For [H]/N=C(\N/C(=N/[H])NCCCCCCNC(=N)NC(=N)Nc1ccc(Cl)cc1)Nc1ccc(Cl)cc1 [Chlorhexidine], the cell damage [3] is listed as “accelerated ageing and a cytopathological effect”.
